Tests used:
[1] = test system: volunteer subjects; assay: Heart rate effect of API combinations in volunteer subjects (Examples 1-3); details: added API in combination with aminophylline and clenbuterol; small group of volunteer subjects
Description: To test this hypothesis, an experiment was conducted, where a combination of aminophylline and clenbuterol was administered to a small group of volunteer subjects. […] For each subject in this example, an electrocardiogram (ECG) was used to monitor heart rate and A-V conduction abnormalities.
To further improve the effect of the aminophylline and clenbuterol combination on the heart rate, various combinations with active pharmaceutical ingredients were investigated. Without being bound by theory, the hypothesis in this experiment was to utilize a combination of APIs with similar mechanism of action or with the same side effect (a secondary therapeutical effects) on heart as aminophylline and clenbuterol. Oryzanol, nicotinamide, or anisodamine in combination with aminophylline and clenbuterol was tested on a small group of volunteer subjects.
Nifedipine (a calcium channel blocker) was then selected and tested.
A combination of betahistine with aminophylline, clenbuterol, and nifedipine was then prepared and tested on a small group of healthy volunteer subjects.

[2] = test system: patient; assay: Clinical observation of heart rate in patients treated for other indications; details: vertigo patient, after administering betahistine
[3] = test system: bradycardia patients; assay: API combinations tested on bradycardia patients (Examples 1-3); format: in vivo, human; details: observed on some patients
Description: During the testing of the 4-API combination on bradycardia patients, a few adverse side effects were observed on some patients. […] Therefore, a further study was conducted to determine how to avoid or reduce such side effects. […] To confirm this finding, clenbuterol was replaced by albuterol in the 4-API combination, which has a similar secondary therapeutic effect on heart rate. […] Daily electrocardiograms were used to monitor the bradycardia patients. […] With this improvement, the effectiveness of the treatment on bradycardia patients was retained while the undesired side effects were minimized or eliminated.

For CN1[C@H]2C[C@H](OC(=O)[C@H](CO)c3ccccc3)C[C@@H]1[C@@H](O)C2 [anisodamine], the “effect on heart rate compared with aminophylline and clenbuterol combination (Example 1)” value [1] was “no further improvement”.
CNCCc1ccccn1 [betahistine] was tested, and the “effect on heart rate” value [2] was “noticeably increased”.
For CC(C)(C)NCC(O)c1cc(Cl)c(N)c(Cl)c1 (centres unmarked) [clenbuterol], the adverse side effects [3] was “these side effects were related to clenbuterol”.
NC(=O)c1cccnc1 [nicotinamide] was tested, and the “effect on heart rate compared with aminophylline and clenbuterol combination (Example 1)” value [1] was “no further improvement”.
For Oryzanol, the “effect on heart rate compared with aminophylline and clenbuterol combination (Example 1)” value [1] was “no further improvement”.
